The values that follow come from patent publication US20190218207A1, “3-(Pyridin-3-yl)-Acrylamide and N-(Pyridin-3-yl)-Acrylamide Derivatives and Their Use as PAK or NAMPT Modulators” (Karyopharm Therapeutics Inc., priority 2015, published 2019).

Like-named read-outs stand apart in the source and are kept apart here.

In one assay the test system is 3T3 cells. The assay can be described thus: MTT cell proliferation assay, 3T3 cells. It is filed as cell-based, mouse. The settings on record: 3T3 fibroblast cells, incubation approximately 64-72 hours. As for the experimental part: (§1) The MTT cell proliferation assay was used to study the cytotoxic properties of the compounds. The assay was performed according to the method described by Roche Molecular Biochemicals, with minor modifications. The assay is based on the cleavage of the tetrazolium salt, MTT, in the presence of an electron-coupling reagent. The water-insoluble formazan salt produced must be solubilized in an additional step. Cells grown in a 96-well tissue culture plate were incubated with the MTT solution for approximately 4 hours. After this incubation period, a water-insoluble formazan dye formed. After solubilization, the formazan dye was quantitated using a scanning multi-well spectrophotometer (ELISA reader). […] The cells were seeded at 5,000-10,000 cells in each well of 96-well plate in 100 μL of fresh culture medium and were allowed to attach overnight. The stock solutions of the compounds were diluted in […] cell culture medium to obtain eight concentrations of each test compound, ranging from 1 nM to 30 μM. […] All optical densities were measured at 490 nm using a Vmax Kinetic Microplate Reader (Molecular Devices). In most cases, the assay was performed in duplicate and the results were presented as a mean percent inhibition to the negative control±SE. The following formula was used to calculate the percent of inhibition: Inhibition (%)=(1-(ODo/OD))×100.
(§2) The compounds were tested against MS751, Z138 and 3T3 cells. The MS751 cell line is derived from a metastasis to lymph node of human cervix from a patient diagnosed with squameous cell carcinoma of the cervix. The Z138 cell line is a mature B-cell acute lymphoblastic leukemia cell line derived from a patient with chronic lumphocytic leukemia. 3T3 cells are standard fibroblast cells; they were originally isolated from Swiss mouse embryo tissue.
(In general: Formazan colour is commonly taken as a measure of viable cells.)

For another assay, the system named is Z138 cells. The assay can be described thus: MTT cell proliferation assay, Z138 cells. It is filed as cell-based, human. As for the experimental part: as §1, §2
A further assay relates to MS751 cells. The assay can be described thus: MTT cell proliferation assay, MS751 cells. It counts as cell-based, human. The settings on record: Homo sapiens, incubation approximately 64-72 hours, read-out: MTT Assay IC50, MS 751. As for the experimental part:
as §1, §2

[1] abbreviates: Homo sapiens, Z-138, incubation approximately 64-72 hours.

For “2-(6-aminopyridin-3-yloxy)-N-((4-(3-(4-fluorophenyl)-4′-(4,4-difluoropiperidine-1-carbonyl)biphenyl-4-yl)furan-2-yl)methyl)acetamide [Compound A028]”, the IC50 – broadly, the concentration needed to halve the response being measured – in the assay with 3T3 cells is > 10000 nM; in the assay with Z138 cells (incubation approximately 64-72 hours, read-out: MTT Assay IC50, Z-138), < 1000 nM.

Turning to `Nc1ccc(/C=C/C(=O)NCc2ccc(-c3ccc(-c4ccc(C(=O)N5CCC(F)(F)CC5)cn4)cc3C(F)(F)F)o2)cn1` [Compound A001, (E)-3-(6-aminopyridin-3-yl)-N-((5-(4-(5-(4,4-difluoropiperidine-1-carbonyl)pyridin-2-yl)-2-(trifluoromethyl)phenyl)furan-2-yl)methyl)acrylamide], the concentration for half-maximal inhibition (IC50) is 1000 to 5000 nM in the assay with 3T3 cells (Mus musculus, NIH3T3); < 1000 nM in the assay on MS751 cells; < 1000 nM in the assay on Z138 cells (setting [1]).

For `O=C(/C=C/c1cccnc1)NCc1ccc(-c2ccc(-c3ccc(C(=O)N4CCC(F)(F)CC4)cn3)cc2C(F)(F)F)o1` [Compound A002, (E)-N-((5-(4-(5-(4,4-difluoropiperidine-1-carbonyl)pyridin-2-yl)-2-(trifluoromethyl)phenyl)furan-2-yl)methyl)-3-(pyridin-3-yl)acrylamide], the IC50 in the assay with 3T3 cells (Mus musculus, NIH3T3) was > 10000 nM; in the assay with MS751 cells, < 1000 nM; in the assay with Z138 cells (setting [1]), < 1000 nM.

On to `Nc1ccc(/C=C/C(=O)NCc2ccc(-c3ccc(-c4ccc(C(=O)N5CC(F)(F)C5)cn4)cc3C(F)(F)F)o2)cn1` [Compound A003, (E)-3-(6-aminopyridin-3-yl)-N-((5-(4-(5-(3,3-difluoroazetidine-1-carbonyl)pyridin-2-yl)-2-(trifluoromethyl)phenyl)furan-2-yl)methyl)acrylamide], for which the IC50 with 3T3 cells (Mus musculus, NIH3T3) is < 1000 nM; in the assay with MS751 cells, < 1000 nM; with Z138 cells (setting [1]), < 1000 nM.

For the compound `Nc1ccc(/C=C/C(=O)NCc2ccc(-c3ccc(-c4ccc(C(=O)N5CCC(F)(F)CC5)cn4)cc3C(F)(F)F)s2)cn1` [Compound A005, (E)-3-(6-aminopyridin-3-yl)-N-((5-(4-(5-(4,4-difluoropiperidine-1-carbonyl)pyridin-2-yl)-2-(trifluoromethyl)phenyl)thiophen-2-yl)methyl)acrylamide], the IC50 in the assay on 3T3 cells (Mus musculus, NIH3T3) is 1000 to 5000 nM; with MS751 cells it was < 1000 nM; in the assay on Z138 cells (setting [1]) it was < 1000 nM.

On to `Nc1ccc(/C=C/C(=O)NCc2ccc(-c3ccc(-c4ccc(C(=O)N5CCC(F)(F)CC5)cn4)cc3Cl)o2)cn1` [Compound A006, (E)-3-(6-aminopyridin-3-yl)-N-((5-(2-chloro-4-(5-(4,4-difluoropiperidine-1-carbonyl)pyridin-2-yl)phenyl)furan-2-yl)methyl)acrylamide], for which the IC50 in the assay with 3T3 cells (Mus musculus, NIH3T3) is 1000 to 5000 nM; in the assay with MS751 cells, < 1000 nM; in the assay on Z138 cells (setting [1]), < 1000 nM.

`Nc1ccc(/C=C/C(=O)NCc2ccc(-c3ccc(-c4ccc(C(=O)N5CCC(F)(F)CC5)cc4F)cc3-c3ccc(F)cc3)o2)cn1` [Compound A007, (E)-3-(6-aminopyridin-3-yl)-N-((5-(4-(4,4-difluoropiperidine-1-carbonyl)-2,4″-difluoro-[1,1′:3′,1″-terphenyl]-4′-yl)furan-2-yl)methyl)acrylamide]: the 50% inhibitory concentration (IC50) was 5000 to 10000 nM in the assay on 3T3 cells (Mus musculus, NIH3T3); < 1000 nM in the assay on MS751 cells; < 1000 nM in the assay on Z138 cells (setting [1]).

`Nc1ccc(/C=C/C(=O)NCc2ccc(-c3ccc(-c4ccc(C(=O)N5CCC(F)(F)CC5)cc4)cc3-c3ccc(F)cc3)o2)cn1` [Compound A008, (E)-3-(6-aminopyridin-3-yl)-N-((5-(4-(4,4-difluoropiperidine-1-carbonyl)-4″-fluoro-[1,1′:3′,1″-terphenyl]-4′-yl)furan-2-yl)methyl)acrylamide]: the half-inhibitory concentration (IC50) was 5000 to 10000 nM in the assay with 3T3 cells (Mus musculus, NIH3T3); < 1000 nM with MS751 cells; < 1000 nM with Z138 cells (setting [1]).

As to `Nc1ccc(/C=C/C(=O)NCc2ccc(-c3ccc(-c4ccc(C(=O)N5CCC(F)(F)CC5)cc4)cc3-c3cccc(Cl)c3)o2)cn1` [Compound A009, (E)-3-(6-aminopyridin-3-yl)-N-((5-(3″-chloro-4-(4,4-difluoropiperidine-1-carbonyl)-[1,1′:3′,1″-terphenyl]-4′-yl)furan-2-yl)methyl)acrylamide], the IC50 was 1000 to 5000 nM in the assay on 3T3 cells (Mus musculus, NIH3T3); < 1000 nM with MS751 cells; < 1000 nM in the assay with Z138 cells (setting [1]).

Take `Nc1ccc(/C=C/C(=O)NCc2nnc(-c3ccc(-c4ccc(C(=O)N5CCC(F)(F)CC5)cc4)cc3-c3ccc(F)cc3)o2)cn1` [Compound A010, (E)-3-(6-aminopyridin-3-yl)-N-((5-(4-(4,4-difluoropiperidine-1-carbonyl)-4″-fluoro-[1,1′:3′,1″-terphenyl]-4′-yl)-1,3,4-oxadiazol-2-yl)methyl)acrylamide]: the IC50 is > 10000 nM with 3T3 cells (Mus musculus, NIH3T3); < 1000 nM in the assay with MS751 cells; < 1000 nM with Z138 cells (setting [1]).

In the case of `Nc1ccc(/C=C/C(=O)NCc2ccc(-c3ccc(-c4ccc(C(=O)N5CCC(F)(F)CC5)cc4)cc3-c3ccc(F)cc3)[nH]2)cn1` [Compound A011, (E)-3-(6-aminopyridin-3-yl)-N-((5-(4-(4,4-difluoropiperidine-1-carbonyl)-4″-fluoro-[1,1′:3′,1″-terphenyl]-4′-yl)-1H-pyrrol-2-yl)methyl)acrylamide], the IC50 in the assay with 3T3 cells (Mus musculus, NIH3T3) is > 10000 nM; in the assay with MS751 cells, 1000 to 5000 nM; in the assay with Z138 cells (setting [1]), < 1000 nM.

On to `Cc1c(CNC(=O)/C=C/c2ccc(N)nc2)sc(-c2ccc(-c3ccc(C(=O)N4CC(F)C4)cc3)cc2-c2ccc(F)cc2)c1C` [Compound A013, (E)-3-(6-aminopyridin-3-yl)-N-((5-(4″-fluoro-4-(3-fluoroazetidine-1-carbonyl)-[1,1′:3′,1″-terphenyl]-4′-yl)-3,4-dimethylthiophen-2-yl)methyl)acrylamide], for which the half-inhibitory concentration (IC50) in the assay on 3T3 cells (Mus musculus, NIH3T3) is > 10000 nM; in the assay with MS751 cells it was 1000 to 5000 nM; in the assay on Z138 cells (setting [1]), < 1000 nM.

For the compound `Cc1cc(-c2ccc(-c3ccc(C(=O)N4CC(F)C4)cc3)cc2C(F)(F)F)sc1CNC(=O)/C=C/c1ccc(N)nc1` [Compound A014, (E)-3-(6-aminopyridin-3-yl)-N-((5-(4′-(3-fluoroazetidine-1-carbonyl)-3-(trifluoromethyl)-[1,1′-biphenyl]-4-yl)-3-methylthiophen-2-yl)methyl)acrylamide], the IC50 in the assay on 3T3 cells (Mus musculus, NIH3T3) is 5000 to 10000 nM; in the assay on MS751 cells, < 1000 nM; in the assay on Z138 cells (setting [1]), < 1000 nM.

`Nc1ccc(/C=C/C(=O)NCc2ccc(-c3ccc(-c4ccc(C(=O)N5CC(F)(F)C5)cc4)cc3C(F)(F)F)o2)cn1` [Compound A015, (E)-3-(6-aminopyridin-3-yl)-N-((5-(4′-(3,3-difluoroazetidine-1-carbonyl)-3-(trifluoromethyl)-[1,1′-biphenyl]-4-yl)furan-2-yl)methyl)acrylamide]: the IC50 is > 10000 nM in the assay on 3T3 cells (Mus musculus, NIH3T3); < 1000 nM in the assay on MS751 cells; < 1000 nM in the assay on Z138 cells (setting [1]).

As for `Nc1ccc(/C=C/C(=O)NCc2ccc(-c3cc4c(C(=O)N5CCC(F)(F)CC5)c[nH]c4cc3C(F)(F)F)o2)cn1` [Compound A029, (E)-3-(6-aminopyridin-3-yl)-N-((5-(3-(4,4-difluoropiperidine-1-carbonyl)-6-(trifluoromethyl)-1H-indol-5-yl)furan-2-yl)methyl)acrylamide], the half-inhibitory concentration (IC50) was > 10000 nM in the assay with 3T3 cells (Mus musculus, NIH3T3) and < 1000 nM in the assay on Z138 cells (setting [1]).
